# Results taken from US20260250290A1 (BRISTOL-MYERS SQUIBB COMPANY, priority 2023, published 2026).
# Target: T1, full length SGK1 (Homo sapiens, UniProt O00141)
# T1 construct: 125 μM full length SGK1 (Life Technologies Part #PR7358A); purchased Life Technologies PR7358A
# T1 sequence (O00141 1-431): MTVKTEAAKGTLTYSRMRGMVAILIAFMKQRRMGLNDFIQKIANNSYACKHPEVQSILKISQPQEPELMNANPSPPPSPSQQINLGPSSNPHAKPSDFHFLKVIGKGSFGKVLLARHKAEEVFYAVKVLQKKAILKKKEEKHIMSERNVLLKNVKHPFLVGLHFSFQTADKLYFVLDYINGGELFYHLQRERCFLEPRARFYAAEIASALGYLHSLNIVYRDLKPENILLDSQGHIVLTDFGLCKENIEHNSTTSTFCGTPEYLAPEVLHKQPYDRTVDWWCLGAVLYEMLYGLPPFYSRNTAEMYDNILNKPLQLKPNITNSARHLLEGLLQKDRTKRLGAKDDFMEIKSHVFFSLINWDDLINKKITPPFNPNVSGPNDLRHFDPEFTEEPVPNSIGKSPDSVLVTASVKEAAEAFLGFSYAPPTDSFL
# Experiment: SGK1 inhibition Assay A (Caliper LabChip electrophoretic separation of fluorescent peptide substrate and phosphorylated product)
# Type: biochemical
# Details: Assay A; 20 μM ATP, 40 min incubation; read-out: SGK1 IC50
row,SMILES,IC50
1,"CN1CCN(CCOc2cc(C(F)F)sc2C(=O)N[C@@H]2CCCN(c3cc(-c4ccnc(C(F)F)c4)n4ncnc(N)c34)C2)CC1 [Example 335, (R)—N-(1-(4-amino-7-(2-(difluoromethyl)pyridin-4-yl)pyrrolo[2,1-f][1,2,4]triazin-5-yl)piperidin-3-yl)-5-(difluoromethyl)-3-(2-(4-methylpiperazin-1-yl)ethoxy)thiophene-2-carboxamide]",4 nM
2,"COC(=O)N1CC=C(c2cc(N3CCC[C@@H](NC(=O)c4sc(C(F)F)cc4OCCN4CCOCC4)C3)c3c(N)ncnn23)C1 [Example 336, methyl (R)-3-(4-amino-5-(3-(5-(difluoromethyl)-3-(2-morpholinoethoxy)thiophene-2-carboxamido)piperidin-1-yl)pyrrolo[2,1-f][1,2,4]triazin-7-yl)-2,5-dihydro-1H-pyrrole-1-carboxylate]",28 nM
3,"Nc1ncnn2c(-c3ccnc(C(F)F)c3)cc(N3CCC[C@@H](NC(=O)c4sc(C(F)F)cc4OCCN4CCOCC4)C3)c12 [Example 337, (R)—N-(1-(4-amino-7-(2-(difluoromethyl)pyridin-4-yl)pyrrolo[2,1-f][1,2,4]triazin-5-yl)piperidin-3-yl)-5-(difluoromethyl)-3-(2-morpholinoethoxy)thiophene-2-carboxamide]",14 nM
4,"CN(C)C(=O)COc1cc(Cl)sc1C(=O)N[C@@H]1CCCN(c2cc(-c3ccnc(C(F)F)c3)n3ncnc(N)c23)C1 [Example 339, (R)—N-(1-(4-amino-7-(2-(difluoromethyl)pyridin-4-yl)pyrrolo[2,1-f][1,2,4]triazin-5-yl)piperidin-3-yl)-5-chloro-3-(2-(dimethylamino)-2-oxoethoxy)thiophene-2-carboxamide]",9 nM
5,"CN(C)CCOc1cc(Cl)sc1C(=O)N[C@@H]1CCCN(c2cc(-c3ccnc(C(F)F)c3)n3ncnc(N)c23)C1 [Example 340, (R)—N-(1-(4-amino-7-(2-(difluoromethyl)pyridin-4-yl)pyrrolo[2,1-f][1,2,4]triazin-5-yl)piperidin-3-yl)-5-chloro-3-(2-(dimethylamino)ethoxy)thiophene-2-carboxamide]",3 nM
6,"Nc1ncnn2c(-c3ccnc(C(F)F)c3)cc(N3CCC[C@@H](NC(=O)c4sc(Cl)cc4OCCN4CCOCC4)C3)c12 [Example 341, (R)—N-(1-(4-amino-7-(2-(difluoromethyl)pyridin-4-yl)pyrrolo[2,1-f][1,2,4]triazin-5-yl)piperidin-3-yl)-5-chloro-3-(2-morpholinoethoxy)thiophene-2-carboxamide]",2 nM
7,"CN1CCN(CCOc2cc(Cl)sc2C(=O)N[C@@H]2CCCN(c3cc(-c4ccnc(C(F)F)c4)n4ncnc(N)c34)C2)CC1 [Example 342, (R)—N-(1-(4-amino-7-(2-(difluoromethyl)pyridin-4-yl)pyrrolo[2,1-f][1,2,4]triazin-5-yl)piperidin-3-yl)-5-chloro-3-(2-(4-methylpiperazin-1-yl)ethoxy)thiophene-2-carboxamide]",4 nM
8,"CN(C)CCOc1cc(C(F)F)sc1C(=O)N[C@@H]1CCCN(c2cc(-c3ccnc(C(F)F)c3)n3ncnc(N)c23)C1 [Example 343, (R)—N-(1-(4-amino-7-(2-(difluoromethyl)pyridin-4-yl)pyrrolo[2,1-f][1,2,4]triazin-5-yl)piperidin-3-yl)-5-(difluoromethyl)-3-(2-(dimethylamino)ethoxy)thiophene-2-carboxamide]",5 nM
9,"Nc1ncnn2c(-c3ccnc(C(F)F)c3)cc(N3CCC[C@@H](NC(=O)c4sc(C(F)F)cc4N4CCOCC4)C3)c12 [Example 344, (R)—N-(1-(4-amino-7-(2-(difluoromethyl)pyridin-4-yl)pyrrolo[2,1-f][1,2,4]triazin-5-yl)piperidin-3-yl)-5-(difluoromethyl)-3-morpholinothiophene-2-carboxamide]",7 nM
10,"Nc1ncnn2c(-c3ccnc(C(F)F)c3)cc(N3CCC[C@@H](NC(=O)c4sc(C(F)F)cc4N4CC5(COC5)C4)C3)c12 [Example 345, (R)—N-(1-(4-amino-7-(2-(difluoromethyl)pyridin-4-yl)pyrrolo[2,1-f][1,2,4]triazin-5-yl)piperidin-3-yl)-5-(difluoromethyl)-3-(2-oxa-6-azaspiro[3.3]heptan-6-yl)thiophene-2-carboxamide]",19 nM
11,"Nc1ncnn2c(-c3ccc(NS(=O)(=O)c4cc(Cl)ccc4F)cc3)cc(N3CCC[C@@H](NC(=O)c4ccc(Cl)s4)C3)c12 [Example 346, (R)—N-(1-(4-amino-7-(4-((5-chloro-2-fluorophenyl)sulfonamido)phenyl)pyrrolo[2,1-f][1,2,4]triazin-5-yl)piperidin-3-yl)-5-chlorothiophene-2-carboxamide]",79 nM
12,"CC(=O)N1CC=C(c2cc(N3CCC[C@@H](NC(=O)c4sc(C(F)F)cc4OC4CCNCC4)C3)c3c(N)ncnn23)C1 [Example 347, (R)—N-(1-(7-(1-acetyl-2,5-dihydro-1H-pyrrol-3-yl)-4-aminopyrrolo[2,1-f][1,2,4]triazin-5-yl)piperidin-3-yl)-5-(difluoromethyl)-3-(piperidin-4-yloxy)thiophene-2-carboxamide]",9 nM
13,"COC(=O)N1CC=C(c2cc(N3CCC[C@@H](NC(=O)c4sc(C(F)F)cc4OC4CCNCC4)C3)c3c(N)ncnn23)C1 [Example 348, methyl (R)-3-(4-amino-5-(3-(5-(difluoromethyl)-3-(piperidin-4-yloxy)thiophene-2-carboxamido)piperidin-1-yl)pyrrolo[2,1-f][1,2,4]triazin-7-yl)-2,5-dihydro-1H-pyrrole-1-carboxylate]",6 nM
14,"NC(=O)c1ccc(-c2cc(N3CCC[C@@H](NC(=O)c4sc(C(F)F)cc4OC4CCNCC4)C3)c3c(N)ncnn23)cc1F [Example 349, (R)-N-(1-(4-amino-7-(4-carbamoyl-3-fluorophenyl)pyrrolo[2,1-f][1,2,4]triazin-5-yl)piperidin-3-yl)-5-(difluoromethyl)-3-(piperidin-4-yloxy)thiophene-2-carboxamide]",2 nM
15,"CC(=O)N1CC=C(c2cc(N3CCC[C@@H](NC(=O)c4sc(C(F)F)cc4OCC4CCNCC4)C3)c3c(N)ncnn23)C1 [Example 350, (R)—N-(1-(7-(1-acetyl-2,5-dihydro-1H-pyrrol-3-yl)-4-aminopyrrolo[2,1-f][1,2,4]triazin-5-yl)piperidin-3-yl)-5-(difluoromethyl)-3-(piperidin-4-ylmethoxy)thiophene-2-carboxamide]",13 nM
16,"COC(=O)N1CC=C(c2cc(N3CCC[C@@H](NC(=O)c4sc(C(F)F)cc4OCC4CCNCC4)C3)c3c(N)ncnn23)C1 [Example 351, methyl (R)-3-(4-amino-5-(3-(5-(difluoromethyl)-3-(piperidin-4-yl-methoxy)thiophene-2-carboxamido)piperidin-1-yl)pyrrolo[2,1-f][1,2,4]triazin-7-yl)-2,5-dihydro-1H-pyrrole-1-carboxylate]",8 nM
17,"CC(=O)N1CC=C(c2cc(N3CCC[C@@H](NC(=O)c4sc(C)nc4OCCN(C)C)C3)c3c(N)ncnn23)C1 [Example 352, (R)—N-(1-(7-(1-acetyl-2,5-dihydro-1H-pyrrol-3-yl)-4-aminopyrrolo[2,1-f][1,2,4]triazin-5-yl)piperidin-3-yl)-4-(2-(dimethylamino)ethoxy)-2-methylthiazole-5-carboxamide]",14 nM
18,"COC(=O)N1CC=C(c2cc(N3CCC[C@@H](NC(=O)c4sc(C)nc4OCCN(C)C)C3)c3c(N)ncnn23)C1 [Example 353, Methyl (R)-3-(4-amino-5-(3-(4-(2-(dimethylamino)ethoxy)-2-methylthiazole-5-carboxamido)piperidin-1-yl)pyrrolo[2,1-f][1,2,4]triazin-7-yl)-2,5-dihydro-1H-pyrrole-1-carboxylate]",16 nM
19,"Cc1nc(OCCN(C)C)c(C(=O)N[C@@H]2CCCN(c3cc(-c4ccc(C#N)nc4)n4ncnc(N)c34)C2)s1 [Example 354, (R)-N-(1-(4-amino-7-(6-cyanopyridin-3-yl)pyrrolo[2,1-f][1,2,4]triazin-5-yl)piperidin-3-yl)-4-(2-(dimethylamino)ethoxy)-2-methylthiazole-5-carboxamide]",6 nM
20,"Cc1nc(OCCN(C)C)c(C(=O)N[C@@H]2CCCN(c3cc(-c4ccc(=O)n(CC(C)C)c4)n4ncnc(N)c34)C2)s1 [Example 355, (R)-N-(1-(4-amino-7-(1-isobutyl-6-oxo-1,6-dihydropyridin-3-yl)pyrrolo[2,1-f][1,2,4]triazin-5-yl)piperidin-3-yl)-4-(2-(dimethylamino)ethoxy)-2-methylthiazole-5-carboxamide]",47 nM
21,"Cc1nc(OCCN(C)C)c(C(=O)N[C@@H]2CCCN(c3cc(-c4ccnc(C#N)c4)n4ncnc(N)c34)C2)s1 [Example 356, (R)-N-(1-(4-amino-7-(2-cyanopyridin-4-yl)pyrrolo[2,1-f][1,2,4]triazin-5-yl)piperidin-3-yl)-4-(2-(dimethylamino)ethoxy)-2-methylthiazole-5-carboxamide]",13 nM
22,"CC(=O)N1CC=C(c2cc(N3CCC[C@@H](NC(=O)c4sc(C)nc4OC4CCN(C)CC4)C3)c3c(N)ncnn23)C1 [Example 357, (R)—N-(1-(7-(1-acetyl-2,5-dihydro-1H-pyrrol-3-yl)-4-aminopyrrolo[2,1-f][1,2,4]triazin-5-yl)piperidin-3-yl)-2-methyl-4-((1-methylpiperidin-4-yl)oxy)thiazole-5-carboxamide]",24 nM
